{
  "source": "patent US20190231768A1",
  "about": "“P[…] TREATING DRUG INDUCED DYSKINESIAS” (PRILENIA THERAPEUTICS DEVELOPMENT LTD., priority 2017, published 2019)",
  "key": {"D2R [1]": {"target": "T1, D2R (Homo sapiens, UniProt P14416)", "T1 sequence (P14416 whole entry)": "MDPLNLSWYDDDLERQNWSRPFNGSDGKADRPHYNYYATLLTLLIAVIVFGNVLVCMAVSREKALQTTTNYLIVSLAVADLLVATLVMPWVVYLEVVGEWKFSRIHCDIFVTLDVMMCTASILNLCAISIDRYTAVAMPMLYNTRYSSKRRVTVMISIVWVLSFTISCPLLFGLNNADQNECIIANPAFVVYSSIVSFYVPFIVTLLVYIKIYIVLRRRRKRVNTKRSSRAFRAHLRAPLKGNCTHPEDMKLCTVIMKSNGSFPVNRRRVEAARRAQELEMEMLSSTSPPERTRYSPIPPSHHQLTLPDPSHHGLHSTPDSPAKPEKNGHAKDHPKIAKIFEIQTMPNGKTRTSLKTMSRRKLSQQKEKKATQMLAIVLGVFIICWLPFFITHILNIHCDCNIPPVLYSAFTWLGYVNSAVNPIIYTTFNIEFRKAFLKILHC", "conditions": "human 67.5 mg bid; based on human PET data and PK profile"}, "[2]": {"test_system": "human subject afflicted with LID", "conditions": "45, 90, 135 or 180 mg/day oral, add-on to amantadine"}, "6-OHDA-lesioned rat": {"test_system": "6-OHDA-lesioned rat", "conditions": "25 μmole/kg (8 mg/kg); cited from earlier work"}, "HD patients": {"test_system": "HD patients", "conditions": "cited from earlier work; for TMS change from baseline vs placebo: HD stage 1 (baseline TFC≥11), post hoc"}, "[3]": {"test_system": "human subject afflicted with a DIMD", "conditions": "45, 90, 135 or 180 mg/day oral, add-on"}, "D2R [4]": {"target": "D2R (Rattus norvegicus, UniProt P61169)", "sequence (P61169 whole entry)": "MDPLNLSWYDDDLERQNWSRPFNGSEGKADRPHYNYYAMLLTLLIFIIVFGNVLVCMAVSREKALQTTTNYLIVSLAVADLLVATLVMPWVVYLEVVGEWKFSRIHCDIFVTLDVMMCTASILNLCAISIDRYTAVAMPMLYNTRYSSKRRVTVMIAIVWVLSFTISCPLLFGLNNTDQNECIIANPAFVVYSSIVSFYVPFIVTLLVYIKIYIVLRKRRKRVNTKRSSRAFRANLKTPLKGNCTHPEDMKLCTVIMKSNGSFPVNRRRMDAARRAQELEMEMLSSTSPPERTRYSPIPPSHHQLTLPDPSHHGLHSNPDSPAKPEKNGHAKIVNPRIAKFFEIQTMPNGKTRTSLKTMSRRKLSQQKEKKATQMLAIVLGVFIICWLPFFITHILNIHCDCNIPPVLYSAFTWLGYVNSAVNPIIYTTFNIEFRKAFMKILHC", "conditions": "cited from earlier work"}, "sigma-1 receptor (S1R)": {"target": "sigma-1 receptor (S1R) (Homo sapiens, UniProt Q99720)", "sequence (Q99720 whole entry)": "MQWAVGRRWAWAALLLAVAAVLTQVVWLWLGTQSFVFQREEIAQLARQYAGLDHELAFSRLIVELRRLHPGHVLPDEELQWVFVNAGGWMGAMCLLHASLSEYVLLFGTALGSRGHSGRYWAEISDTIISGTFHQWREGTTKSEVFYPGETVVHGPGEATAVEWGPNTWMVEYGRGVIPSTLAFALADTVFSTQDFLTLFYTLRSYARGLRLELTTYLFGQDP", "source_text": "(§1) The study consisted of a screening period of up to 8 weeks prior to first dosing of tracer, including a Ti three-dimensional magnetization-prepared rapid acquisition gradient echo (MPRAGE 3D) magnetic resonance imaging (MRI) scan (visit 1), a study period of up to 4 weeks (including visits 2 and 3), and a follow-up visit (visit 4). […] Each dose cohort comprised up to 4 subjects. Although every subject of each dose cohort was expected to receive the same dose, it was also possible to change the dose level within a cohort due to the adaptive design of the study."}, "[5]": {"target": "dopamine-2 receptor (D2R) (Homo sapiens, UniProt P14416)", "sequence (P14416 whole entry)": "as the sequence (P14416 whole entry) above", "conditions": "90 mg", "source_text": "as §1"}, "[6]": {"test_system": "human subject afflicted with LID", "conditions": "greater than 100 mg/day oral, add-on to levodopa", "source_text": "The therapy provides efficacy in treating the patient without undue adverse side effects or affecting the safety of the treatment: […]"}, "σ1R [7]": {"target": "T2, σ1R (Homo sapiens, UniProt Q99720)", "T2 sequence (Q99720 whole entry)": "as the sequence (Q99720 whole entry) above", "conditions": "human 67.5 mg bid; based on human PET data and PK profile"}, "σ1R [8]": {"target": "σ1R (Rattus norvegicus, UniProt Q9R0C9)", "sequence (Q9R0C9 whole entry)": "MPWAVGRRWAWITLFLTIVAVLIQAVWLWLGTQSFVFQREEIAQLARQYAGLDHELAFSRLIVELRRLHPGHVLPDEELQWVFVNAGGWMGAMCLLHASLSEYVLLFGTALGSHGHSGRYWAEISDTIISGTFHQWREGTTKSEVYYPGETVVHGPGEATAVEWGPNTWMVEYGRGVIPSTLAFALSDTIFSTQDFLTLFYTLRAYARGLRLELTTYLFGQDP", "conditions": "3 mg/kg PO; cited from earlier work"}, "σ1R [9]": {"target": "T2, σ1R", "assay": "in vivo", "conditions": "read-out: % σ1R occupancy"}, "D2R [10]": {"test_system": "D2R", "conditions": "for % D2R occupancy: NHP, based on 11C-raclopride PET", "source_text": "NHP σ1R occupancy data are extrapolated from in vitro binding investigations with 3H-fluspidine, known and specific σ1R tracer, against human σ1R."}, "Sigma-1 (σ1R)": {"target": "Sigma-1 (σ1R) (Homo sapiens, UniProt Q99720)", "sequence (Q99720 whole entry, species assumed)": "as the sequence (Q99720 whole entry) above", "procedure": "(§2) NMDA, 5-HT6 and tachykinin NK1 receptors along with the dopamine transporter (DAT), norepinephrine transporter (NET) and serotonin transporter (SERT). The specific ligand binding to the receptors was defined as the difference between the total binding and the nonspecific binding determined in the presence of an excess of unlabeled ligand. IC50 values were determined by a non-linear, least squares regression analysis using MathIQ™ (ID Business Solutions Ltd., UK). […] Hill coefficient (nH), defining the slope of the competitive binding curve, was calculated using MathIQ™."}, "Adrenergic α2C": {"target": "Adrenergic α2C (Homo sapiens, UniProt P18825)", "sequence (P18825 whole entry)": "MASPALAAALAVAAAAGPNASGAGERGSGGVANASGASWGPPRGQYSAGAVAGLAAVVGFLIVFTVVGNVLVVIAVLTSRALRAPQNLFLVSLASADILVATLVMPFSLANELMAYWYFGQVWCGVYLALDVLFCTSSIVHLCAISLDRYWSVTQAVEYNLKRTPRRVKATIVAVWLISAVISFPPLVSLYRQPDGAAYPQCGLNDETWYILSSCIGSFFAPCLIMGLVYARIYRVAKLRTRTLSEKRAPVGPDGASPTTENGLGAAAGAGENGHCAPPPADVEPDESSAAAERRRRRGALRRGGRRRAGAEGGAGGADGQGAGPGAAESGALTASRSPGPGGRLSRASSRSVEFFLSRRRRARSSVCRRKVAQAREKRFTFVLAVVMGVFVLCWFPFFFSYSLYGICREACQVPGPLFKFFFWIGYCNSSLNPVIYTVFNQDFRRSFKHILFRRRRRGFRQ", "procedure": "as §2"}, "[11]": {"target": "Norepinephrine transporter (NET) (Homo sapiens, UniProt P23975)", "sequence (P23975 whole entry, species assumed)": "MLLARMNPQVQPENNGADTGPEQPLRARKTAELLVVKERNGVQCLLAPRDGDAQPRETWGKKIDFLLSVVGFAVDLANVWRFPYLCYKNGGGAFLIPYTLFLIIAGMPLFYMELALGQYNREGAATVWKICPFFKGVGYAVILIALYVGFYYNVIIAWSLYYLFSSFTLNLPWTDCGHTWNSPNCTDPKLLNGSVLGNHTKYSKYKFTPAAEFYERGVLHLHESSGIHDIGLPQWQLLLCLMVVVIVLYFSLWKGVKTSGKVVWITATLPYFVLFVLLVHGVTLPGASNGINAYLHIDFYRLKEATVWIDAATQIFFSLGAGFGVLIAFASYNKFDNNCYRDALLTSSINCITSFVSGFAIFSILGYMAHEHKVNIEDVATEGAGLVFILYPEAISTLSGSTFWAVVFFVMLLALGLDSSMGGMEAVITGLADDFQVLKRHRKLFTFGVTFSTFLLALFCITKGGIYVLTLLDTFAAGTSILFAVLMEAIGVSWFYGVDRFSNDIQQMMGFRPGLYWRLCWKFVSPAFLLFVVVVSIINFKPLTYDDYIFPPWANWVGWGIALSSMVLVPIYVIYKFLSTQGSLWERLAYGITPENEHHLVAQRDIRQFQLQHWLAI", "procedure": "as §2"}, "5-HT6": {"target": "5-HT6 (Homo sapiens, UniProt P50406)", "sequence (P50406 whole entry, species assumed)": "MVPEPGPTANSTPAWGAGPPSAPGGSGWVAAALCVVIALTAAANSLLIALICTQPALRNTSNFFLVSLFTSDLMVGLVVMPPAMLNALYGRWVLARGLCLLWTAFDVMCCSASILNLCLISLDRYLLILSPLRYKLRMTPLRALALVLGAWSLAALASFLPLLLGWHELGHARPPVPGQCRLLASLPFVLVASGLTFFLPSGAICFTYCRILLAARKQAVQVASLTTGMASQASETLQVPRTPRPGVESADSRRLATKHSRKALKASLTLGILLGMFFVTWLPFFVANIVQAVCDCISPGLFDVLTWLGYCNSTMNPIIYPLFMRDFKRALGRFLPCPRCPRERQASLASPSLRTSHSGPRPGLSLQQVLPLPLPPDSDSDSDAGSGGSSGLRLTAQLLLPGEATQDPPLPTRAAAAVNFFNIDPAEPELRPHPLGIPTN", "procedure": "as §2"}, "Histamine H3": {"target": "Histamine H3 (Homo sapiens, UniProt Q9Y5N1)", "sequence (Q9Y5N1 whole entry)": "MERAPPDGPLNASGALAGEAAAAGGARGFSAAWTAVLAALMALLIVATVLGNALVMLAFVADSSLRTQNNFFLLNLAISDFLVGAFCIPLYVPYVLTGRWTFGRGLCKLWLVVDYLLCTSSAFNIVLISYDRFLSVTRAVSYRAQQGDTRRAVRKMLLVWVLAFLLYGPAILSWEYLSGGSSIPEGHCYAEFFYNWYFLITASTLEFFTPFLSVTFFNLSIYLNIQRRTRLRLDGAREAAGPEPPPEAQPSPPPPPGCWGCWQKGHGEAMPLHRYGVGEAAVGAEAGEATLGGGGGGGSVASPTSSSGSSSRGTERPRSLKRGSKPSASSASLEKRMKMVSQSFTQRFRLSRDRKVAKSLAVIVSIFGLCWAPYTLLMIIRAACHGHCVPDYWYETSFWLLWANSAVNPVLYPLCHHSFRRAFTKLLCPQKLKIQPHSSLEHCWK", "procedure": "as §2"}, "Muscarinic M2": {"target": "Muscarinic M2 (Homo sapiens, UniProt P08172)", "procedure": "as §2"}, "Serotonin 5-HT2A": {"target": "Serotonin 5-HT2A (Homo sapiens, UniProt P28223)", "sequence (P28223 whole entry)": "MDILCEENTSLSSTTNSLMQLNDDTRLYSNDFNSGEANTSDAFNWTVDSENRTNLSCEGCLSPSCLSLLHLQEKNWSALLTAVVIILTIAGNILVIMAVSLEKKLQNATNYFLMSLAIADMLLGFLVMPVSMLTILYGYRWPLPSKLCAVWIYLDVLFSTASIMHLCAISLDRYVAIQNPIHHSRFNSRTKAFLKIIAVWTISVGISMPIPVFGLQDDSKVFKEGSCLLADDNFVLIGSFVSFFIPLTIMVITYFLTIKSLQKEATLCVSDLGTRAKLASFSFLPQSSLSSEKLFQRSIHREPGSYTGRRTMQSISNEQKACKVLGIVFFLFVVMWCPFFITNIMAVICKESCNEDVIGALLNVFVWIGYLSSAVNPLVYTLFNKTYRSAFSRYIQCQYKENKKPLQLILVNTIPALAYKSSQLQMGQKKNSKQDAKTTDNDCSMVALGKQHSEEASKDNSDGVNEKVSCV", "procedure": "as §2"}, "[12]": {"target": "Dopamine transporter (DAT) (Homo sapiens, UniProt Q01959)", "sequence (Q01959 whole entry, species assumed)": "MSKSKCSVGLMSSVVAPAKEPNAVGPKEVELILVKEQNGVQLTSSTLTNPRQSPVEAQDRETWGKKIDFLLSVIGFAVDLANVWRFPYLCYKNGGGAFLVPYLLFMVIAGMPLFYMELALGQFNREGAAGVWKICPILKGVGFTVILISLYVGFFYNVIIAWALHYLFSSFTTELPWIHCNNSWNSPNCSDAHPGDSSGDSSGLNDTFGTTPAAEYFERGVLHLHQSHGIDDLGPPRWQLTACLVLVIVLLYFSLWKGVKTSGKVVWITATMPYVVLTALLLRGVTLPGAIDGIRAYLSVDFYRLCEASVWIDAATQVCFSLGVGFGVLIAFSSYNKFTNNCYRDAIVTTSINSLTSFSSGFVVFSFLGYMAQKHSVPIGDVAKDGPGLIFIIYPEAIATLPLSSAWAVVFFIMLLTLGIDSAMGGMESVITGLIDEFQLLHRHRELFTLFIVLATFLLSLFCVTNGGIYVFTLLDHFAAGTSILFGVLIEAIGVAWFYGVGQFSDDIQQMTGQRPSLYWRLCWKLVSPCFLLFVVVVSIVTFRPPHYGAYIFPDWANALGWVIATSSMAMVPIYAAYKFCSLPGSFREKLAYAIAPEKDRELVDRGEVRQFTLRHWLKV", "procedure": "as §2"}, "Dopamine D2": {"target": "Dopamine D2 (Homo sapiens, UniProt P14416)", "sequence (P14416 whole entry)": "as the sequence (P14416 whole entry) above", "procedure": "as §2"}, "[13]": {"target": "Serotonin transporter (SERT) (Homo sapiens, UniProt P31645)", "procedure": "as §2"}, "Dopamine D3": {"target": "Dopamine D3 (Homo sapiens, UniProt P35462)", "procedure": "as §2"}, "Sigma-2 (σ2R)": {"target": "Sigma-2 (σ2R) (Homo sapiens, UniProt Q5BJF2)", "sequence (Q5BJF2 whole entry)": "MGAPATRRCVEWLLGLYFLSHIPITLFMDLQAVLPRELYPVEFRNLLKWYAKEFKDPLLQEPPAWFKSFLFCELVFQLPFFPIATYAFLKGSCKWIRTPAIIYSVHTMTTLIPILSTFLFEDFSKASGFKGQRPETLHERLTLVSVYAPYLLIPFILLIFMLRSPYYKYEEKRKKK", "procedure": "as §2"}, "[14]": {"test_system": "patients with Huntington's Disease (HD)", "conditions": "45 mg twice daily (90 mg/day); cited from earlier work"}, "D2R [15]": {"target": "T1, D2R", "assay": "in vivo", "conditions": "read-out: % D2R occupancy"}},
  "note": "Like-named read-outs stand apart in the source and are kept apart here.",
  "data": [
    {"compound": "CCCN1CCC(c2cccc(S(C)(=O)=O)c2)CC1", "note": "[pridopidine, 4-(3-(methylsulfonyl)phenyl)-1-propylpiperidine]", "values": [
      {"measurement": "occupancy of the dopamine receptors (DARs) (estimated)", "setting": "D2R [1]", "result": "minimal occupancy"},
      {"measurement": "symptoms of dyskinesia", "setting": "[2]", "result": "effective (provides at least an additive effect or more than an additive effect)"},
      {"measurement": "L-DOPA-induced sensitization of contraversive-rotation", "setting": "6-OHDA-lesioned rat", "result": "decreased"},
      {"measurement": "anti-parkinsonian benefit of L-DOPA", "setting": "6-OHDA-lesioned rat", "result": "no decrease"},
      {"measurement": "difference in TFC score decline vs placebo", "setting": "HD patients; 45 mg bid, 52 weeks, nominal p=0.003", "result": "0.87 (95% confidence interval: 0.29-1.45)"},
      {"measurement": "TMS change from baseline vs placebo", "setting": "HD patients; 45 mg bid, weeks 26 or 52", "result": "trend towards improvement"},
      {"measurement": "TMS change from baseline vs placebo", "setting": "HD patients; 112.5 mg bid, 52 weeks", "result": "no improvement"},
      {"measurement": "TFC decline", "setting": "HD patients; high dose (>90 mg bid)", "result": "failed to show improvement"},
      {"measurement": "TMS efficacy compared to placebo or the 45 mg bid dose", "setting": "HD patients; high doses (≥67.5 bid)", "result": "none of the high doses of pridopidine (≥67.5 bid) showed improved efficacy"},
      {"measurement": "symptoms of DIMD", "setting": "[3]", "result": "effective (provides at least an additive effect or more than an additive effect)"},
      {"measurement": "% D2R occupancy", "setting": "D2R [4]; 3 mg/kg PO", "result": 0, "unit": "%"},
      {"measurement": "% D2R occupancy", "setting": "D2R [4]; 15 mg/kg PO", "result": 0, "unit": "%"},
      {"measurement": "difference in drug-induced S1R occupancy between HV and HD patients", "setting": "sigma-1 receptor (S1R); 90 mg", "result": "no differences"},
      {"measurement": "S1R occupancy", "setting": "sigma-1 receptor (S1R); healthy volunteers, single oral dose 45 mg, 2 h after dosing", "result": "~100", "unit": "%"},
      {"measurement": "S1R occupancy", "setting": "sigma-1 receptor (S1R); healthy volunteers, single oral dose 90 mg, 2 h after dosing", "result": "~100", "unit": "%"},
      {"measurement": "S1R occupancy", "setting": "sigma-1 receptor (S1R); single oral dose 1 mg", "result": "approximately 40%"},
      {"measurement": "D2R blockage", "setting": "[5]", "result": 3, "unit": "%"},
      {"measurement": "anti-parkinsonian benefit of L-DOPA", "setting": "[6]", "result": "does not affect the anti-parkinsonian benefit of L-DOPA"},
      {"measurement": "bad quality on-time evoked by levodopa", "setting": "[6]", "result": "improves the bad quality on-time"},
      {"measurement": "symptoms of dyskinesia", "setting": "[6]", "result": "effective in improving symptoms of dyskinesia"},
      {"measurement": "S1R occupancy (estimated)", "setting": "σ1R [7]", "result": "fully occupy the S1Rs"},
      {"measurement": "% σ1R occupancy", "setting": "σ1R [8]", "result": 60, "unit": "%"},
      {"measurement": "receptor occupancy at 45 mg", "setting": "σ1R [9]", "result": "> 90", "unit": "%"},
      {"measurement": "receptor occupancy at 90 mg", "setting": "σ1R [9]", "result": "> 90", "unit": "%"},
      {"measurement": "receptor occupancy at 150 mg", "setting": "σ1R [9]", "result": "> 90", "unit": "%"},
      {"measurement": "% D2R occupancy", "setting": "D2R [10]; 7 mg/kg PO", "result": "<15", "unit": "%"},
      {"measurement": "% D2R occupancy", "setting": "D2R [10]; 15 mg/kg PO", "result": 15, "unit": "%"},
      {"measurement": "% D2R occupancy", "setting": "D2R [10]; 20 mg/kg PO", "result": 25, "unit": "%"},
      {"measurement": "% D2R occupancy", "setting": "D2R [10]; 30 mg/kg PO", "result": 40, "unit": "%"},
      {"measurement": "occupancy of low affinity dopamine receptors (expected)", "setting": "D2R [10]; high, effective dose (30 mg/kg, or 20 mg/kg in study 1)", "result": "about 40%"},
      {"measurement": "occupancy of low affinity dopamine receptors (expected)", "setting": "D2R [10]; low, ineffective doses (7 and 15 mg/kg (study 1), 20 mg/kg in study 2)", "result": "about 10%"},
      {"measurement": "D2R-occupancy", "setting": "D2R [10]; macaques, effective doses (20 to 30 mg/kg)", "result": "25-40%"},
      {"measurement": "nH (Hill coefficient)", "setting": "Sigma-1 (σ1R)", "result": 0.87},
      {"measurement": "affinity for S1R compared to Dopamine D2R", "setting": "Sigma-1 (σ1R); S1R vs D2R", "result": "approximately 100 fold"},
      {"measurement": "nH (Hill coefficient)", "setting": "Adrenergic α2C", "result": 0.76},
      {"measurement": "binding", "setting": "[11]", "result": "no observed binding"},
      {"measurement": "binding", "setting": "5-HT6", "result": "no observed binding"},
      {"measurement": "nH (Hill coefficient)", "setting": "Histamine H3", "result": 0.85},
      {"measurement": "nH (Hill coefficient)", "setting": "Muscarinic M2", "result": 0.62},
      {"measurement": "nH (Hill coefficient)", "setting": "Serotonin 5-HT2A", "result": 0.81},
      {"measurement": "binding", "setting": "[12]", "result": "no observed binding"},
      {"measurement": "binding against the dopamine D2 receptors", "setting": "Dopamine D2", "result": "negligible or no binding"},
      {"measurement": "nH (Hill coefficient)", "setting": "Dopamine D2", "result": 0.94},
      {"measurement": "binding", "setting": "[13]", "result": "no observed binding"},
      {"measurement": "nH (Hill coefficient)", "setting": "Dopamine D3", "result": 0.90},
      {"measurement": "nH (Hill coefficient)", "setting": "Sigma-2 (σ2R)", "result": 0.80},
      {"measurement": "motor function, UHDRS Total Motor Score (TMS)", "setting": "[14]", "result": "significantly improved motor function"},
      {"measurement": "receptor occupancy at 45 mg", "setting": "D2R [15]", "result": "~3", "unit": "%"},
      {"measurement": "receptor occupancy at 90 mg", "setting": "D2R [15]", "result": "~30", "unit": "%"},
      {"measurement": "receptor occupancy at 150 mg", "setting": "D2R [15]", "result": "> 40", "unit": "%"}
    ]}
  ]
}
